Here are results for twelve molecules from ChEMBL document CHEMBL2375265, “Novel oleanolic vinyl boronates: synthesis and antitumor activity” (Eur J Med Chem, 2013).

Structures are written as SMILES. Calls of active or inactive are those of the source. The rule behind the calls is not given here. Peptide text beside a SMILES is read from it. * marks the point of attachment. Cbz = O=C(OCc1ccccc1)*

For assay [1], the system named is HeLa. Put plainly: Cytotoxicity against human HeLa cells assessed as growth inhibition after 48 hrs by MTT assay. Format: functional, cell-based.
Assay [2] deals with JIYOYE. Put plainly: Cytotoxicity against human Jijoye cells assessed as growth inhibition after 48 hrs by MTT assay. The class given is functional, cell-based.
Assay [3] in a line: Cytotoxicity against human fibroblasts assessed as growth inhibition after 48 hrs by MTT assay. Format: cell-based. To be noted: Fibroblast.
Assay [4] deals with K562. Kind of assay: Cytotoxicity against human K562 cells assessed as growth inhibition after 48 hrs by MTT assay. The class given is functional, cell-based. Conditions: K562, 48 h.
The test system of assay [5] is Jurkat. Put plainly: Cytotoxicity against human Jurkat cells assessed as growth inhibition after 48 hrs by MTT assay. Format: functional, cell-based.
Assay [6] deals with SW480. Kind of assay: Cytotoxicity against human SW480 cells assessed as growth inhibition after 48 hrs by MTT assay. The class given is functional, cell-based. To be noted: SW480, 48 h.
The subject of assay [7] is SK-OV-3. Kind of assay: Cytotoxicity against human SKOV3 cells assessed as growth inhibition after 48 hrs by MTT assay. The class given is functional, cell-based. To be noted: SK-OV-3, 48 h.
In assay [8] the test system is Jurkat. Put plainly: Inhibition of proteasome in human Jurkat cells assessed as accumulation of ubiquitinated protein at 50 uM by Western blot analysis. The class given is cell-based.
In assay [9] the test system is Jurkat. Kind of assay: Cell cycle arrest in human Jurkat cells assessed as accumulation at G2/M phase at 20 uM by propidium iodide staining-based FACS flow cytometric analysis (reference value: 16.63%). The class given is functional.
For assay [10], the system named is Jurkat. Kind of assay: Inhibition of trypsin-like activity of proteasome isolated from human Jurkat cells using Boc-LRR-AMC as substrate assessed as residual activity at 50 uM incubated for 30 mins followed by substrate addition measured for 2 hrs by fluorescence assay relative to control. The class given is cell-free.
For assay [11], the system named is Jurkat. Kind of assay: Inhibition of chymotrypsin-like activity of proteasome isolated from human Jurkat cells using Suc-LLVY-AMC as substrate assessed as residual activity at 25 uM incubated for 30 mins followed by substrate addition measured for 2 hrs by fluorescence assay relative to control. The class given is cell-free.
For assay [12], the system named is Jurkat. Put plainly: Induction of apoptosis in human Jurkat cells assessed as early apoptotic cells at 20 uM by propidium iodide/annexin V staining-based FACS flow cytometric analysis (reference value: 1.87%). Format: functional.
In assay [13] the test system is Jurkat. Put plainly: Inhibition of chymotrypsin-like activity of proteasome in human Jurkat cells assessed as residual activity at 50 uM after 30 mins by fluorescence assay relative to control. The class given is cell-based.
In assay [14] the test system is Jurkat. Put plainly: Induction of apoptosis in human Jurkat cells assessed as dead cells at 20 uM by propidium iodide/annexin V staining-based FACS flow cytometric analysis (reference value: 0.66%). Format: functional.
Assay [15] deals with Jurkat. Kind of assay: Induction of apoptosis in human Jurkat cells assessed as caspase 3/7 activation at 20 uM after overnight incubation by luminescence assay. The class given is functional, cell-based.
The subject of assay [16] is Jurkat. Put plainly: Cell cycle arrest in human Jurkat cells assessed as accumulation at S phase at 20 uM by propidium iodide staining-based FACS flow cytometric analysis (reference value: 26.91%). The class given is functional.
The test system of assay [17] is Jurkat. Kind of assay: Inhibition of trypsin-like activity of proteasome isolated from human Jurkat cells using Boc-LRR-AMC as substrate assessed as residual activity at 25 uM incubated for 30 mins followed by substrate addition measured for 2 hrs by fluorescence assay relative to control. The class given is cell-free.
The subject of assay [18] is Jurkat. Put plainly: Cell cycle arrest in human Jurkat cells assessed as accumulation at G0/G1 phase at 20 uM by propidium iodide staining-based FACS flow cytometric analysis (reference value: 52.59%). Format: functional.
Assay [19] relates to Jurkat. Put plainly: Inhibition of trypsin-like activity of proteasome in human Jurkat cells at 50 uM after 30 mins by fluorescence assay. The class given is cell-based.
Assay [20] has as its system Jurkat. Kind of assay: Inhibition of trypsin-like activity of proteasome isolated from human Jurkat cells using Boc-LRR-AMC as substrate assessed as residual activity at 100 uM incubated for 30 mins followed by substrate addition measured for 2 hrs by fluorescence assay relative to control. Format: cell-free.
The test system of assay [21] is Jurkat. Kind of assay: Induction of apoptosis in human Jurkat cells assessed as late apoptotic cells at 20 uM by propidium iodide/annexin V staining-based FACS flow cytometric analysis (reference value: 0.37%). The class given is functional.
Assay [22] relates to Jurkat. Put plainly: Inhibition of chymotrypsin-like activity of proteasome isolated from human Jurkat cells using Suc-LLVY-AMC as substrate assessed as residual activity at 100 uM incubated for 30 mins followed by substrate addition measured for 2 hrs by fluorescence assay relative to control. The class given is cell-free.
The test system of assay [23] is Jurkat. Kind of assay: Inhibition of chymotrypsin-like activity of proteasome isolated from human Jurkat cells using Suc-LLVY-AMC as substrate assessed as residual activity at 50 uM incubated for 30 mins followed by substrate addition measured for 2 hrs by fluorescence assay relative to control. Format: cell-free.
The test system of assay [24] is Jurkat. Kind of assay: Cell cycle arrest in human Jurkat cells assessed as accumulation at sub G0/G1 phase at 20 uM by propidium iodide staining-based FACS flow cytometric analysis (reference value: 4.81%). Format: functional.
For assay [25], the system named is Jurkat. Kind of assay: Cell cycle arrest in human Jurkat cells assessed at 20 uM by propidium iodide staining-based FACS flow cytometric analysis. Format: functional.
The subject of assay [26] is Jurkat. Put plainly: Inhibition of trypsin-like activity of proteasome isolated from human Jurkat cells using Boc-LRR-AMC as substrate assessed as residual activity at 10 uM incubated for 30 mins followed by substrate addition measured for 2 hrs by fluorescence assay relative to control. Format: cell-free.
The test system of assay [27] is Jurkat. Kind of assay: Inhibition of chymotrypsin-like activity of proteasome isolated from human Jurkat cells using Suc-LLVY-AMC as substrate assessed as residual activity at 10 uM incubated for 30 mins followed by substrate addition measured for 2 hrs by fluorescence assay relative to control. Format: cell-free.

For the molecule `CC1(C)CC[C@]2(C(=O)O)CC[C@]3(C)C(=CC[C@@H]4[C@@]5(C)CC=C(B6OC(C)(C)C(C)(C)O6)C(C)(C)[C@@H]5CC[C@]43C)[C@@H]2C1`, the half-maximal inhibitory concentration (IC50) in assay [1], in assay [2], in [3], in assay [4], in assay [5] and in assay [6] was above 50 µM throughout. Further, the 50% inhibitory concentration (IC50) in assay [7] was above 50 µM.
For `CC1(C)CC[C@]2(C#N)CC[C@]3(C)C(=CC[C@@H]4[C@@]5(C)CC=C(B6OC(C)(C)C(C)(C)O6)C(C)(C)[C@@H]5CC[C@]43C)[C@@H]2C1`, the IC50 in assay [1], in assay [2], in [3], in [4], in assay [5] and in [6] was above 50 µM in each case. Moreover, the IC50 in [7] is above 50 µM.
Regarding `COC(=O)[C@]12CCC(C)(C)C[C@H]1[C@H]1/C(=N\O)C[C@@H]3[C@@]4(C)CC=C(B5OC(C)(C)C(C)(C)O5)C(C)(C)[C@@H]4CC[C@@]3(C)[C@]1(C)CC2`, the IC50 in assay [1], in assay [2], in assay [3], in assay [4], in assay [5] and in assay [6] was above 50 µM in each case. Besides, the half-inhibitory concentration (IC50) in assay [7] was above 50 µM.
`COC(=O)[C@]12CCC(C)(C)C[C@H]1[C@H]1C(=O)C=C3[C@@]4(C)CC=C(B5OC(C)(C)C(C)(C)O5)C(C)(C)[C@@H]4CC[C@@]3(C)[C@]1(C)CC2`: the IC50 in [1], in assay [2], in [3], in assay [4], in [5] and in [6] was above 50 µM in each case. The concentration for half-maximal inhibition (IC50) in [7] is above 50 µM.
For `CC1(C)CC[C@]2(C(=O)NCC(=O)O)CC[C@]3(C)C(=CC[C@@H]4[C@@]5(C)CC=C(B6OC(C)(C)C(C)(C)O6)C(C)(C)[C@@H]5CC[C@]43C)[C@@H]2C1`, the inhibition entry in assay [8] and in assay [19] was “Active” throughout. Besides, the Activity amounted to 10.6% in assay [9]; 84.1% in assay [10]; 83.6% in [11]; 3.73% in assay [12]; 25% in assay [13]; 19.81% in [14]. For the same molecule, the Activity in [16] is 13.27%; in assay [17], 85.3%; in assay [18], 82.2%; in [20] it was 51.4%; in assay [21], 13.22%; in [22], 59.3%. Further, the Activity in assay [23] turned out to be 64%; in assay [24], 13.79%. In addition, the IC50 in assay [1] was 28 µM; in [2], 13.4 µM; in assay [3], above 50 µM; in assay [4] it was 18.2 µM; in [5], 15.5 µM; in [6] it was 17.9 µM. In assay [7], the IC50 turned out to be 15.4 µM. The outcome in [15] was Active.
For the molecule `COC(=O)[C@]12CCC(C)(C)C[C@H]1C1=CC[C@@H]3[C@@]4(C)CC=C(B5OC(C)(C)C(C)(C)O5)C(C)(C)[C@@H]4CC[C@@]3(C)[C@]1(C)CC2`, the IC50 in [1], in assay [2], in assay [3], in assay [4], in [5] and in [6] was above 50 µM throughout. For the same molecule, the half-inhibitory concentration (IC50) in assay [7] was above 50 µM.
As to `CC1(C)CC[C@]2(C(N)=O)CC[C@]3(C)C(=CC[C@@H]4[C@@]5(C)CC=C(B6OC(C)(C)C(C)(C)O6)C(C)(C)[C@@H]5CC[C@]43C)[C@@H]2C1`, the concentration for half-maximal inhibition (IC50) in assay [1] was 34.7 µM; in [2], 8.4 µM; in [3], above 50 µM; in assay [4], 8.3 µM; in [5], 21.6 µM; in assay [6], above 50 µM. Besides, in assay [7], the half-inhibitory concentration (IC50) was above 50 µM. Besides, the Activity is 77.9% in assay [10]; 95.8% in assay [11]; 81.6% in assay [17]; 72.5% in [20]; 85.6% in assay [22]; 92.4% in [23]. The result in [15] was Active. For the same molecule, the outcome in assay [25] was inactive.
`C[C@H](NC(=O)[C@]12CCC(C)(C)C[C@H]1C1=CC[C@@H]3[C@@]4(C)CC=C(B5OC(C)(C)C(C)(C)O5)C(C)(C)[C@@H]4CC[C@@]3(C)[C@]1(C)CC2)C(=O)O`: the inhibition entry in [8] and in assay [19] was “Active” each time. Further, the Activity in assay [9] stood at 12.19%; in assay [10] it was 70.7%; in assay [11] it was 91.7%; in assay [12] it was 5.37%; in [13] it was 37%; in assay [14], 16.33%. The Activity in [16] was 14.24%; in [17], 85.1%; in assay [18] it was 58.78%; in [20], 50.8%; in [21], 13.67%; in assay [22], 47.2%. Further, the Activity is 84.3% in assay [23] and 15.82% in assay [24]. The 50% inhibitory concentration (IC50) in assay [1] is 30.5 µM; in assay [2] it was 19.4 µM; in assay [3] it was above 50 µM; in [4], 20.1 µM; in assay [5], 21.4 µM; in assay [6], 28.7 µM. Also, the IC50 in [7] amounted to 31.2 µM. Further, the outcome in assay [15] was Active.
Consider `COC(=O)[C@]12CCC(C)(C)C[C@H]1[C@H]1C(=O)C[C@@H]3[C@@]4(C)CC=C(B5OC(C)(C)C(C)(C)O5)C(C)(C)[C@@H]4CC[C@@]3(C)[C@]1(C)CC2`, for which the IC50 in assay [1], in assay [2], in assay [3], in assay [4], in assay [5] and in [6] was above 50 µM in each case. In addition, in assay [7], the half-inhibitory concentration (IC50) is above 50 µM.
Turning to `COC(=O)CNC(=O)[C@]12CCC(C)(C)C[C@H]1C1=CC[C@@H]3[C@@]4(C)CC=C(B5OC(C)(C)C(C)(C)O5)C(C)(C)[C@@H]4CC[C@@]3(C)[C@]1(C)CC2`, the IC50 in [1], in [2], in assay [3], in assay [4], in assay [5] and in assay [6] was above 50 µM throughout. For the same molecule, the IC50 in assay [7] was above 50 µM.
Consider `COC(=O)[C@H](C)NC(=O)[C@]12CCC(C)(C)C[C@H]1C1=CC[C@@H]3[C@@]4(C)CC=C(B5OC(C)(C)C(C)(C)O5)C(C)(C)[C@@H]4CC[C@@]3(C)[C@]1(C)CC2`, for which the half-maximal inhibitory concentration (IC50) in [1], in assay [2], in [3], in [4], in assay [5] and in assay [6] was above 50 µM throughout. Besides, the IC50 in assay [7] was above 50 µM.
Turning to `CC(C)C[C@@H](C=O)NC(=O)[C@H](CC(C)C)NC(=O)[C@H](CC(C)C)NC(=O)OCc1ccccc1` (Cbz-Leu-Leu-Leu-aldehyde), the Activity in assay [26] and in [27] was below 20% each time.
